Results taken from patent US12257233B2, “Methods” (Ethismos Research, Inc., priority 2018, dated 2025).

Columns and labels:
mouse = settings: second phase (15-30 minutes); cited from earlier work
rats = assay: Hot plate test of analgesia; assay type: in vivo, rat
From the text: The hot plate test assesses antinociception in rats and mice (see, e.g., Basile, A. et al., “Characterization of the Antinociceptive Actions of Bicifadine in Models of Acute, Persistent, and Chronic Pain,” The Journal of Pharmacology and Experimental Therapeutics, 2007, 321 (3), 1208-1225).

5-HT2c receptor = target: T1, 5-HT2c receptor (Homo sapiens, UniProt P28335); assay: Functional activity at the 5-HT2c receptor; assay type: biochemical
T1 sequence (P28335 33-458): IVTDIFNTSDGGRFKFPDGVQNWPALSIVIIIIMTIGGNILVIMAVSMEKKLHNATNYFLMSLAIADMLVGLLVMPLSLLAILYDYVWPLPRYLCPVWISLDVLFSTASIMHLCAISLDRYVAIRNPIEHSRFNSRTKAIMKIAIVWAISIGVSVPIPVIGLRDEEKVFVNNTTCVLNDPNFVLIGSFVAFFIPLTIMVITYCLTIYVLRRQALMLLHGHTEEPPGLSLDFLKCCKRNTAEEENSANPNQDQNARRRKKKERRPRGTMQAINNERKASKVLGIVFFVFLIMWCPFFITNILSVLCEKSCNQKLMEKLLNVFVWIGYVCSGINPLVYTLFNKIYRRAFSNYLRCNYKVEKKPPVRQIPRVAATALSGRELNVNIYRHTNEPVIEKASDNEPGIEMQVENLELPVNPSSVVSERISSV
From the text: It has been proposed that serotonin exerts control of dopamine release in the ventral tegmental area via the 5-HT2c receptor. […] Opioid analgesic effects are manifested via the periaqueductal gray whereas reduction in self-administration results from a reduction in dopamine neurotransmission via 5-HT2c partial agonism in the ventral tegmental area.

[1] = test system: patients with major depressive disorder; settings: cited from earlier work
female rats = settings: doses of 5 and 10 mg/kg; cited from earlier work

## Cl.Clc1ccc([C@]23CNC[C@H]2C3)cc1Cl [(1R,5S)-1-(3,4-dichlorophenyl)-3-azabicyclo[3.1.0]hexane hydrochloride]
mouse
  effectiveness compared with morphine in formalin paw lick test: as effective as morphine

## Clc1ccc([C@]23CNC[C@H]2C3)cc1Cl [amitifadine, (1R,5S)-1-(3,4-dichlorophenyl)-3-azabicyclo[3.1.0]hexane]
rats; amitifadine alone
  antinociception in hot plate test, given alone: antinociceptive
rats; amitifadine in combination with an opioid
  effect on the opioid's antinociception in hot plate test, in combination: does not attenuate the opioid's antinociception, instead extending the opioid's antinociception
5-HT2c receptor
  activity at the 5-HT2c receptor: partial agonist
[1]
  antidepressant activity: significant antidepressant activity
Female rats
  food motivated responding: does not significantly affect
